One series addresses T1, human HIF-PHD2 (Homo sapiens, UniProt Q9GZT9).
T1 construct: FLAG-tagged full length PHD2 expressed in and purified from baculovirus-infected Sf9 cells; FLAG; made in house; host or cells: baculovirus-infected Sf9 cells
Description: HIF-PHD2 inhibition: hydroxylation of HIF-1α peptide, time resolved fluorescence. The class given is biochemical. As to conditions: FLAG-tagged full length PHD2; 0.2 μM 2-oxoglutarate, 0.5 μM HIF-1α peptide. As for the experimental part:
To each well of a 384-well plate, 1 μL of test compounds in DMSO (final concentration ranging from 0.3 nM to 10 μM) were added into 20 μl of assay buffer (50 mM Tris pH 7.4/0.01% Tween-20/0.1 mg/ml bovine serum albumin/10 μM ferrous sulfate/1 mM sodium ascorbate/20 μg/ml catalase) containing 0.15 μg/ml FLAG-tagged full length PHD2 expressed in and purified from baculovirus-infected Sf9 cells. After a 5 min preincubation at room temperature, the enzymatic reactions were initiated by the addition of 4 μL of substrates {final concentrations of 0.2 μM 2-oxoglutarate and 0.5 μM HIF-1α peptide biotinyl-DLDLEMLAPYIPMDDDFQL (SEQ ID NO: 1)}. After incubation for 45 minutes at room temperature, the reactions were terminated by the addition of a 25 μL quench/detection mix to a final concentration of 1 mM ortho-phenanthroline, 0.1 mM EDTA, 0.5 nM anti-(His)6 LANCE reagent (Perkin-Elmer Life Sciences), 100 nM AF647-labeled streptavidin (Invitrogen), and 2 μg/ml (His)6-VHL complex {S. Tan Protein Expr. Purif. 21, 224-234 (2001)} and the signals were developed for 30 minutes at room temperature. The ratio of time resolved fluorescence signals at 665 and 620 nm was determined, and percent inhibition was calculated relative to the high control samples (DMSO treated) run in parallel, after background subtraction.

The nature of series [1]: Pharmacokinetics (half life) in rat after intravenous administration. The class given is in vivo. As to conditions: plasma, male Wistar Han rats; for half-life: male, Wistar Han, rat, iv, 0.5 mg/kg, read-out: Half Life (t1/2) (converted). As to the method:
The half life of compounds described in this application were evaluated in rat. Shown in Table 9 are T½ of selected examples in rat (Wister Han) for selected compounds of the present invention. In addition Table 9 includes half life data for compounds disclosed in International Patent Application published as WO 2013/043621.
The pharmacokinetics of the compounds disclosed in Table 9 were studied in male Wistar Han rats after intravenous (IV) administration. For IV dosing at 0.5 mg/kg in rat, compounds were formulated as a solution in DMSO/PEG400/water (20/60/20, by vol.). Plasma samples obtained from dosed animals were prepared for analysis by means of a single step protein precipitation technique by adding 200 μL of acetonitrile to 50 μL aliquots of individual subject samples. Samples were mixed by vortex for homogeneity and then subjected to centrifugation at 3500 rpm for 10 min. The supernatant (200 μL) was collected and injected into the LC-MS/MS for analysis. Pharmacokinetic parameters were calculated using established non-compartmental methods.

The record followed here is US20170247336A1 (MERCK SHARP & DOHME CORP., priority 2014, published 2017).

Each structure is given as a SMILES string.

A word on the IC50: it is the concentration at which inhibition is half-maximal.

T1 sequence (Q9GZT9 whole entry): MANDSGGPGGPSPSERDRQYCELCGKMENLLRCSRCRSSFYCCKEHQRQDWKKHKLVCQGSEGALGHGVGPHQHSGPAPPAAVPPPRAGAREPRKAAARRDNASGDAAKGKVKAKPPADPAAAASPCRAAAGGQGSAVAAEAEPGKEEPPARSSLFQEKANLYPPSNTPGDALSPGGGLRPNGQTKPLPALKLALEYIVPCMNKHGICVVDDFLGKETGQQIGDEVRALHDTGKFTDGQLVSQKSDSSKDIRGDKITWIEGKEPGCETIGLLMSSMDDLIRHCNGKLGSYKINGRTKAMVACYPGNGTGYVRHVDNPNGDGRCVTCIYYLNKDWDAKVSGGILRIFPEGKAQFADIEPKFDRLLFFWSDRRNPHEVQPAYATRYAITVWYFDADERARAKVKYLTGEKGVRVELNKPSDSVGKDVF

Take `CC(NC(=O)c1cnc(C(=O)NCCC(=O)O)nc1O)c1ccc(-c2ccc(F)cc2)cc1` (racemic) [Example 44, 3-(5-((1-(4′-fluoro-[1,1′-biphenyl]-4-yl)ethyl)carbamoyl)-4-hydroxypyrimidine-2-carboxamido)propanoic acid]: at human HIF-PHD2, 2.5 nM corresponded to half-maximal inhibition (IC50). For the same compound, the half-life in series [1] was 0.69 h.
On to `C[C@@H](CNC(=O)c1ncc(C(=O)NC(c2ccccc2)c2ccccc2)c(O)n1)C(=O)O` (single isomer, unassigned) [Example 1], for which, at human HIF-PHD2, the IC50 is 2.3 nM. In series [1], the half-life was 1.9 h.
For `C[C@H](CNC(=O)c1ncc(C(=O)NC(c2ccccc2)c2ccccc2)c(O)n1)C(=O)O` (single isomer, unassigned) [Example 2], in that order: 1.7 nM and 1.45 h.
For `COc1ccc(C(NC(=O)c2cnc(C(=O)NCC(C)C(=O)O)nc2O)c2ccc3cc(OC)ccc3n2)cc1` (single isomer, unassigned) [Example 14, (R) or (S)-3-(4-hydroxy-5-(((4-methoxyphenyl)(6-methoxyquinolin-2-yl)methyl)carbamoyl)pyrimidine-2-carboxamido)-2-methylpropanoic acid], in that order: 16 nM and 1.36 h.
On human HIF-PHD2, `COc1ccc(C(NC(=O)c2cnc(C(=O)NCC(C)C(=O)O)nc2O)c2ccc(OC)cc2)cc1` (single isomer, unassigned) [Example 15, (R) or (S)-3-(5-((bis(4-methoxyphenyl)methy)carbamoyl)-4-hydroxypyrimidine-2-carboxamido)-2-methylpropanoic acid] came in with an IC50 of 10 nM. Further, the half-life in series [1] was 0.99 h.
Taken in the same sequence, the figures for `CC(CNC(=O)c1ncc(C(=O)NC2(c3ccc(Br)cc3)CC2)c(O)n1)C(=O)O` (single isomer, unassigned) [Example 16, (R) or (S)-3-(5-((1-(4-bromophenyl)cyclopropyl)carbamoyl)-4-hydroxypyrimidine-2-carboxamido)-2-methylpropanoic acid] were 1.3 nM and 0.88 h.
The compound `CC(CNC(=O)c1ncc(C(=O)NC2(c3ccc(Br)cc3)CC2)c(O)n1)C(=O)O` (single isomer, unassigned) [Example 17, (R) or (S)-3-(5-((1-(4-bromophenyl)cyclopropyl)carbamoyl)-4-hydroxypyrimidine-2-carboxamido)-2-methylpropanoic acid] displayed an IC50 at human HIF-PHD2 of 0.8 nM. Moreover, in series [1] (IV 0.5 mg/kg), the “Half Life (t1/2)” value came out at 1.36 h.
With `O=C(O)CCNC(=O)c1ncc(C(=O)NC(c2ccccc2)c2ccccc2)c(O)n1` [Example 2-11 from WO2013/040789, reference compound], in series [1], the half-life was 0.28 h.
Still for that read-out and setting: the same measure for `O=C(O)CNC(=O)c1ncc(C(=O)NC(c2ccccc2)c2ccccc2)c(O)n1` [Example 2-12 from WO2013/040789, reference compound]: 0.56 h.
In the case of `O=C(O)c1cc(-c2ncc(C(=O)NC(c3ccccc3)c3ccccc3)c(O)n2)no1` [Example 2-16 from WO2013/040789, reference compound], the half-life in series [1] was 0.3 h.
In the case of `O=C(NCC1(C(=O)O)CC1)c1ncc(C(=O)NC(c2ccccc2)c2ccccc2)c(O)n1` [Example 4, 1-((5-(benzhydrylcarbamoyl)-4-hydroxypyrimidine-2-carboxamido)methyl)cyclopropanecarboxylic acid], 8.5 nM corresponded to half-maximal inhibition against human HIF-PHD2 (IC50). Further, the half-life in series [1] was 4.78 h.
For `O=C(N[C@@H](Cc1c[nH]c2ccccc12)C(=O)O)c1ncc(C(=O)NC(c2ccccc2)c2ccccc2)c(O)n1` [Example 6, (2S)-2-(5-(benzhydrylcarbamoyl)-4-hydroxypyrimidine-2-carboxamido)-3-(3aH-indo1-3-yl)propanoic acid], in that order: 8.9 nM and 1.68 h.
For `O=C(NC[C@H](O)C(=O)O)c1ncc(C(=O)NC(c2ccccc2)c2ccccc2)c(O)n1` [Example 7, (S)-3-(5-(benzhydrylcarbamoyl)-4-hydroxypyrimidine-2-carboxamido)-2-hydroxypropanoic acid], in that order: 1.4 nM and 1.02 h.
For `COc1ccc([C@@H](NC(=O)c2cnc(C(=O)NCCC(=O)O)nc2O)c2ccccc2)cc1` [Example 36], in that order: 2.7 nM and 6.76 h.
At human HIF-PHD2, `COc1ccc([C@H](NC(=O)c2cnc(C(=O)NCCC(=O)O)nc2O)c2ccccc2)cc1` [Example 37] yielded an IC50 of 2.4 nM. Besides, the half-life in series [1] was 0.69 h.
For `COc1ccc(C(NC(=O)c2cnc(C(=O)NCCC(=O)O)nc2O)c2ccc3c(c2)CCO3)cc1` (centres unmarked) [Example 39, 3-(5-(((2,3-dihydrobenzofuran-5-yl)(4-methoxyphenyl)methyl)carbamoyl)-4-hydroxypyrimidine-2-carboxamido)propanoic acid], in that order: 1.7 nM and 1.59 h.
`O=C(O)CCNC(=O)c1ncc(C(=O)NC(c2ccc(Cl)cc2)c2ccc(C(F)(F)F)cc2)c(O)n1` (centres unmarked) [Example 40, 3-(5-(((4-chlorophenyl)(4-(trifluoromethyl)phenyl)methyl)carbamoyl)-4-hydroxypyrimidine-2-carboxamido)propanoic acid] gave an IC50 at human HIF-PHD2 of 0.9 nM.
The same measure, in the same setting: the same measure for `COc1ccc(C(NC(=O)c2cnc(C(=O)NCCC(=O)O)nc2O)c2ccc(OC)nc2)cn1` [Example 41, 3-(5-((bis(6-methoxypyridin-3-yl)methyl)carbamoyl)-4-hydroxypyrimidine-2-carboxamido)propanoic acid]: 0.8 nM; for `O=C(O)CCNC(=O)c1ncc(C(=O)NC(c2ccc(Cl)cc2)c2ccc(Cl)cc2)c(O)n1` [Example 42, 3-(5-((bis(4-chlorophenyl)methyl)carbamoyl)-4-hydroxypyrimidine-2-carboxamido)propanoic acid]: 0.5 nM.
The compound `O=C(O)CCNC(=O)c1ncc(C(=O)NC2(c3ccc(Br)cc3)CC2)c(O)n1` [Example 45, 3-(5-((1-(4-bromophenyl)cyclopropyl)carbamoyl)-4-hydroxypyrimidine-2-carboxamido)propanoic acid] registered an IC50 against human HIF-PHD2 of 0.4 nM. Further, in series [1], the half-life is 0.62 h.
`CC(NC(=O)c1cnc(C(=O)NCCC(=O)O)nc1O)c1ccc(Oc2ccccc2)cc1` (centres unmarked) [Example 46, 3-(4-hydroxy-5-((1-(4-phenoxyphenyl)ethyl)carbamoyl)pyrimidine-2-carboxamido)propanoic acid] yielded an IC50 at human HIF-PHD2 of 1 nM.
Same read-out and setting: the same measure for `O=C(O)CCNC(=O)c1ncc(C(=O)NC(c2ccc(Br)cc2)C(F)(F)F)c(O)n1` (centres unmarked) [Example 47, 3-(5-((1-(4-bromophenyl)-2,2,2-trifluoroethyl)carbamoyl)-4-hydroxypyrimidine-2-carboxamido)propanoic acid]: 1.1 nM; for `COc1ccc(C(NC(=O)c2cnc(C(=O)NCCC(=O)O)nc2O)c2ccc(OC)cc2)cc1` [Example 48, 3-(5-((bis(4-methoxyphenyl)methyl)carbamoyl)-4-hydroxypyrimidine-2-carboxamido)propanoic acid]: 0.7 nM; for `O=C(O)CCNC(=O)c1ncc(C(=O)NC(c2ccccc2)c2ccc(C(F)(F)F)cc2)c(O)n1` (centres unmarked) [Example 49, 3-(4-hydroxy-5-((phenyl(4-(trifluoromethyl)phenyl)methyl)carbamoyl)pyrimidine-2-carboxamido)propanoic acid]: 1 nM.
